We go through 2 compounds from patent US20260027119A1, “INHIBITORS OF CALCIUM/CALMODULIN-DEPENDENT PROTEIN KINASE II AND THEIR USES” (priority 2022, published 2026).

In test [1] the target is CaMKII (Homo sapiens, UniProt Q13557). The experiment in a line: CaMKAR in vitro assay (subscreen of primary hits). It is filed as biochemical. The text has this:
(§1) FIG. 1A, FIG. 1B, FIG. 1C, and FIG. 1D show high-throughput screening to identify CaMKII inhibitors. A stable human cell line that expresses CaMKAR and constitutively active human CaMKIIδ (cardiac isoform) was developed. […] In these cells, the JHDLv3 library, which contains 4,475 compounds that are approved for human use, was screened (FIG. 1B). This primary screen identified 118 candidate compounds, which were subscreened using a CaMKAR in vitro assay (FIG. 1C). Validation of these hits in HEK293 cells and by a third-party laboratory led to five potent inhibitors.

Test [2] deals with constitutively active human CaMKIIδ (cardiac isoform). The experiment in a line: High-throughput CaMKAR screen in stable human cell line expressing CaMKAR and constitutively active human CaMKIIδ. Format: cell-based.
Excerpt: as §1
(§2) In some embodiments, the presently disclosed subject matter provides a CaMKII activity biosensor, referred to herein as a CaMKII Activity Reporter (CaMKAR), that is tractable for high-throughput screens. Using this sensor, a library of compounds that are safe for human use (i.e., Food and Drug Administration (FDA)-, European Medicines Agency (EMA)-, China Food and Drug Administration (CFDA)-, and Pharmaceuticals and Medical Devices Agency (PMDA)-approved compounds) was screened for previously unidentified CaMKII inhibitors.

Test [3] has as its system constitutively active CaMKIIδ. Briefly: CaMKII inhibition in HEK293 cells expressing constitutively active CaMKIIδ. Format: cell-based.
Excerpt: as §1

The subject of test [4] is CaMKII. The experiment in a line: CaMKII activation in cardiomyocytes stimulated by field pacing (simulated tachycardia). Format: cell-based.
Excerpt: FIG. 4A, FIG. 4B, and FIG. 4C show compounds that inhibit CaMKII in cardiomyocytes. CaMKII is stimulated in cardiac cells by simulating tachycardia with field pacing. […] When drug concentration is adjusted to match their respective maximum human plasma concentration, four out of the five compounds were able to ameliorate CaMKII (FIG. 4B, FIG. 4C).
as §2

Chain of CaMKII (Homo sapiens, UniProt Q13557) (Q13557 whole entry, canonical isoform): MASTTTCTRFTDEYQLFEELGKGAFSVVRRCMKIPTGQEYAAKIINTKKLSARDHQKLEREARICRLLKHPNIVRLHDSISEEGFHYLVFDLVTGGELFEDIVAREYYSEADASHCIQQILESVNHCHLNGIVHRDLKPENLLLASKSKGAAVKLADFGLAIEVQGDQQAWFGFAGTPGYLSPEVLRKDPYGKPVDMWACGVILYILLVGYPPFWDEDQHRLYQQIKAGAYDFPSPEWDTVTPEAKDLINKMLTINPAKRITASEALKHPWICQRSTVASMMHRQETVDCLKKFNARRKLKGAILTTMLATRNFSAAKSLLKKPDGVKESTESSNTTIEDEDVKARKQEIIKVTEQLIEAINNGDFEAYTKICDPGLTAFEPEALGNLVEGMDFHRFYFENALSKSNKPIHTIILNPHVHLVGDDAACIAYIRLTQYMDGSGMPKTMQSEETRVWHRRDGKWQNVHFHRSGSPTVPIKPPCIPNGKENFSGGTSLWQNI

In the case of `CN[C@@H]1C[C@H]2O[C@@](C)([C@@H]1OC)n1c3ccccc3c3c4c(c5c6ccccc6n2c5c31)C(=O)NC4` [Staurosporine], in test [1], the “CaMKII inhibition in CaMKAR in vitro assay” value is listed as “recovered”. Besides, the “CaMKII inhibition reported by CaMKAR in primary screen cell line” value in test [2] (stable human cell line expressing CaMKAR and constitutively active human CaMKIIδ) is “recovered”.

For the compound `CCS(=O)(=O)N1CC(CC#N)(n2cc(-c3ncnc4[nH]ccc34)cn2)C1` [Baricitinib], the “Potency of CaMKII inhibition relative to tool inhibitor AS100397” value in test [3] is on record as “more potent”. For the same compound, the “CaMKII activity in rat cardiac cells” value in test [4] is recorded as “prevented CaMKII activity”. For the same compound, the “Inhibition of cardiac CaMKII (CaMKIIδ) in human cells” value in test [2] (human cells) is listed as “potently inhibited”.
